Read-outs that look alike come from different tables or passages of the source. Marks after values point to notes of the source that are not given here.
Tests used:
cisplatin-induced emesis [1] = test: Intravenous palonosetron vs ondansetron in cisplatin-treated dogs; type: in vivo; details: 0.1 mg/kg intravenous; five-hour period following cisplatin 3.0 mg/kg
Method: (§1) The antiemetic effects of intravenously and orally administered palonosetron were assessed in male and female dogs (sexes combined). Antineoplastic agents employed in these experiments included cisplatin (3 mg/kg)), dacarbazine (30 mg/kg), mechlorethamine (0.4 mg/kg) and actinomycin D (0.15 mg/kg). […] Mean numbers of episodes were computed and the statistical significance of differences between treatment groups were determined with Dunnett's t test. Solutions of palonosetron and comparator drugs (ondansetron and granisetron) were prepared in distilled water. Vehicle control groups received distilled water. The therapeutic effects of intravenously and orally administered palonosetron were compared to those of ondansetron and vehicle in cisplatin-treated dogs.

cisplatin-induced emesis [2] = test: Reversal of cisplatin-induced emesis, intravenous antiemetic one hour after cisplatin; type: in vivo, dogs; details: for Emetic Episodes (mean ± SD): observed five hours
Method: as §1, with “In a different study, palonosetron and ondansetron were assessed for their relative abilities to reverse cisplatin-induced emesis. In these experiments dogs received intravenous injections” for “The therapeutic effects”, “palonosetron, ondansetron, or vehicle one hour after the intravenous administration” for “intravenously and orally administered palonosetron were compared to those”, “3.0 mg/kg cisplatin. Each animal was observed continuously for five hours following cisplatin administration for the number of emetic episodes.” for “ondansetron and vehicle in cisplatin-treated dogs.”

cisplatin-induced emesis [3] = test: Anti-emetic effect, oral antiemetic one hour before cisplatin; type: in vivo, dogs; details: for Emetic Episodes (mean ± SD): observed five hours
Method: The antiemetic effects of intravenously and orally administered palonosetron were assessed in male and female dogs (sexes combined). Antineoplastic agents employed in these experiments included cisplatin (3 mg/kg)), dacarbazine (30 mg/kg), mechlorethamine (0.4 mg/kg) and actinomycin D (0.15 mg/kg). […] Mean numbers of episodes were computed and the statistical significance of differences between treatment groups were determined with Dunnett's t test. Solutions of palonosetron and comparator drugs (ondansetron and granisetron) were prepared in distilled water. Vehicle control groups received distilled water. The observation of potency differential was further seen during an experiment in which oral dose-response relationships of palonosetron and ondansetron were compared in cisplatin-treated dogs. Palonosetron, ondansetron or vehicle control were administered by the oral route one hour prior to the administration of cisplatin. Each animal was observed continuously for five hours following cisplatin administration for the number of emetic episodes.

cisplatin-induced emesis [4] = test: Duration of action in cisplatin-treated dogs; type: in vivo
Method: Mean numbers of episodes were computed and the statistical significance of differences between treatment groups were determined with Dunnett's t test. Solutions of palonosetron and comparator drugs (ondansetron and granisetron) were prepared in distilled water. Vehicle control groups received distilled water.

[5] = Systemic exposure of palonosetron (plasma, HPLC-radioimmunoassay); type: in vivo, dogs; details: 100 to 1000 μg/kg
[6] = test system: Dacarbazine-Induced Emesis; test: Antagonism of dacarbazine-induced emesis; type: in vivo, dogs; details: for Emetic Episodes (mean ± SD): 2 hours prior to dacarbazine 30.0 mg/kg IV, observed 5 hours
[7] = test system: Actinomycin D-Induced Emesis; test: Antagonism of actinomycin D-induced emesis; type: in vivo, dogs; details: for Emetic Episodes (mean ± SD): 2 hours prior to actinomycin D 0.15 mg/kg IV, observed 5 hours
[8] = test system: Mechlorethamine-Induced Emesis; type: in vivo, dogs; details: for Emetic Episodes (mean ± SD): 2 hours prior to mechlorethamine 0.4 mg/kg IV, observed 5 hours
[9] = Plasma half-life of palonosetron; type: in vivo; details: human
[10] = in vivo
Method: (§2) A randomized, double-blind, multicenter, dose-ranging Phase II trial was performed to identify the dose response relationship among single I.V. doses of palonosetron. Patients receiving highly emetogenic chemotherapy including cyclophosphamide (>1100 mg/m2) and cisplatin (>70 mg/m2), commonly associated with delayed emesis, were assigned to one of five dose groups of a single I.V. administration of palonosetron. Palonosetron was administered alone (without dexamethasone) as a 30 second intravenous injection, 30 minutes prior to chemotherapy administration. The primary endpoint was 24-hour complete responses (no emesis, no rescue) (CR). Secondary endpoints included complete control (no emesis, no rescue, mild nausea) (CC) and 5-day CR.
(§3) 161 patients (32 women, 129 men) participated.

[11] = test system: Highly Emetogenic Chemotherapy-Induced Nausea and Vomiting; test: Phase II dose-ranging trial, single I.V. palonosetron, efficacy; details: for % CR(Day 5): 5-day complete response; for % CR(24 hr): complete response (no emesis, no rescue)
Method: as §2, §3

[12] = intravenous antiemetic 0.001 mg/kg
[13] = intravenous antiemetic 0.003 mg/kg
[14] = intravenous antiemetic 0.01 mg/kg
[15] = intravenous antiemetic 0.03 mg/kg
[16] = intravenous or oral route, stated for all three antineoplastic agents
[17] = palonosetron 0.3-1 mcg/kg single I.V.
[18] = palonosetron 3 mcg/kg single I.V.
[19] = palonosetron 10 mcg/kg single I.V.
[20] = palonosetron 30 mcg/kg single I.V.
[21] = palonosetron 90 mcg/kg single I.V.

Cl.O=C1c2cccc3c2[C@H](CCC3)CN1[C@@H]1CN2CCC1CC2 [Palonosetron, (3aS)-2,3,3a,4,5,6-Hexahydro-2-[(S)-1-Azabicyclo[2.2.2]oct-3-yl]2,3,3a,4,5,6-hexahydro-1-oxo-1Hbenz[de]isoquinoline hydrochloride]
mean number of emetic episodes (cisplatin-induced emesis [1]): 2.20 | Emetic Episodes (mean ± SD) (cisplatin-induced emesis [2]; intravenous dose 0.3 μg/kg one hour after cisplatin 3.0 mg/kg IV): 13.16 ± 6.11 ^ | Emetic Episodes (mean ± SD) (cisplatin-induced emesis [2]; intravenous dose 1.0 μg/kg one hour after cisplatin 3.0 mg/kg IV): 7.16 ± 4.26^a | Emetic Episodes (mean ± SD) (cisplatin-induced emesis [2]; intravenous dose 3.0 μg/kg one hour after cisplatin 3.0 mg/kg IV): 4.33 ± 4.03^b | Emetic Episodes (mean ± SD) (cisplatin-induced emesis [2]; intravenous dose 10.0 μg/kg one hour after cisplatin 3.0 mg/kg IV): 4.50 ± 5.24^b | Emetic Episodes (mean ± SD) (cisplatin-induced emesis [2]; intravenous dose 30.0 μg/kg one hour after cisplatin 3.0 mg/kg IV): 1.33 ± 1.21^b | Emetic Episodes (mean ± SD) (cisplatin-induced emesis [2]; intravenous dose 100.0 μg/kg one hour after cisplatin 3.0 mg/kg IV): 1.67 ± 1.83^b | Emetic Episodes (mean ± SD) (cisplatin-induced emesis [2]; intravenous dose 300.0 μg/kg one hour after cisplatin 3.0 mg/kg IV): 3.33 ± 3.01^b | statistically minimally effective dose level (cisplatin-induced emesis [2]; intravenous, one hour after cisplatin): 1.0 µg/kg | Emetic Episodes (mean ± SD) (cisplatin-induced emesis [3]; oral dose 0.3 μg/kg one hour before cisplatin): 12.16 ± 1.94 | Emetic Episodes (mean ± SD) (cisplatin-induced emesis [3]; oral dose 1.0 μg/kg one hour before cisplatin): 12.83 ± 4.70 | Emetic Episodes (mean ± SD) (cisplatin-induced emesis [3]; oral dose 3.0 μg/kg one hour before cisplatin): 16.16 ± 5.11 | Emetic Episodes (mean ± SD) (cisplatin-induced emesis [3]; oral dose 10.0 μg/kg one hour before cisplatin): 4.00 ± 3.79^a | Emetic Episodes (mean ± SD) (cisplatin-induced emesis [3]; oral dose 30.0 μg/kg one hour before cisplatin): 2.66 ± 1.75^a | Emetic Episodes (mean ± SD) (cisplatin-induced emesis [3]; oral dose 100.0 μg/kg one hour before cisplatin): 0.00 ± 0.00^a | Emetic Episodes (mean ± SD) (cisplatin-induced emesis [3]; oral dose 300.0 μg/kg one hour before cisplatin): 1.67 ± 2.04^a | minimally effective dose (significant reduction in episodes) (cisplatin-induced emesis [3]; oral, one hour before cisplatin): 10 µg/kg | longest pretreatment time before cisplatin with antiemetic activity (cisplatin-induced emesis [4]; 0.1 mg/kg IV): 10 h | Emetic Episodes (mean ± SD) (cisplatin-induced emesis [4]; 0.1 mg/kg IV, 1 hr pre-cisplatin 3.0 mg/kg IV): 1.33 ± 1.03^b | Emetic Episodes (mean ± SD) (cisplatin-induced emesis [4]; 0.1 mg/kg IV, 2 hr pre-cisplatin 3.0 mg/kg IV): 2.50 ± 2.43^b | Emetic Episodes (mean ± SD) (cisplatin-induced emesis [4]; 0.1 mg/kg IV, 4 hr pre-cisplatin 3.0 mg/kg IV): 0.33 ± 0.52^b | Emetic Episodes (mean ± SD) (cisplatin-induced emesis [4]; 0.1 mg/kg IV, 6 hr pre-cisplatin 3.0 mg/kg IV): 5.83 ± 4.40^b | Emetic Episodes (mean ± SD) (cisplatin-induced emesis [4]; 0.1 mg/kg IV, 8 hr pre-cisplatin 3.0 mg/kg IV): 9.50 ± 5.50^b | Emetic Episodes (mean ± SD) (cisplatin-induced emesis [4]; 0.1 mg/kg IV, 10 hr pre-cisplatin 3.0 mg/kg IV): 9.83 ± 4.79^b | Emetic Episodes (mean ± SD) (cisplatin-induced emesis [4]; 0.1 mg/kg IV, 12 hr pre-cisplatin 3.0 mg/kg IV): 13.17 ± 6.27 | protective effects, pretreatment time prior to cisplatin (cisplatin-induced emesis [4]; earlier experiment, 0.03 mg/kg, compared with ondansetron 0.3 mg/kg IV (as long as seven hours)): similarly effective | dose proportionality of systemic exposure (AUC0-4hr) [5]: approximately dose-proportional | Emetic Episodes (mean ± SD) [6, 12]: 10.17 ± 2.04 ^ | Emetic Episodes (mean ± SD) [6, 13]: 6.67 ± 4.13^ | Emetic Episodes (mean ± SD) [6, 14]: 1.67 ± 1.37^d | Emetic Episodes (mean ± SD) [6, 15]: 0.83 ± 1.17^d | potency relative to ondansetron [6, 16]: at least 10 times | Emetic Episodes (mean ± SD) ([6]; oral antiemetic 0.003 mg/kg): 12.83 ± 6.68 ^ | Emetic Episodes (mean ± SD) ([6]; oral antiemetic 0.01 mg/kg): 6.83 ± 4.92^d | Emetic Episodes (mean ± SD) ([6]; oral antiemetic 0.03 mg/kg): 0.33 ± 0.52^d | Emetic Episodes (mean ± SD) ([6]; oral antiemetic 0.1 mg/kg): 0.00 ± 0.00^d | Emetic Episodes (mean ± SD) [7, 12]: 10.00 ± 0.54^c | Emetic Episodes (mean ± SD) [7, 13]: 10.83 ± 2.04 ^ | Emetic Episodes (mean ± SD) [7, 14]: 7.17 ± 3.06^d | Emetic Episodes (mean ± SD) [7, 15]: 5.17 ± 4.45^d | potency relative to ondansetron [7, 16]: at least 10 times | Emetic Episodes (mean ± SD) ([7]; oral antiemetic 0.003 mg/kg): 5.83 ± 1.47^d | Emetic Episodes (mean ± SD) ([7]; oral antiemetic 0.01 mg/kg): 6.67 ± 3.83^d | Emetic Episodes (mean ± SD) ([7]; oral antiemetic 0.03 mg/kg): 3.33 ± 4.55^d | Emetic Episodes (mean ± SD) ([7]; oral antiemetic 0.1 mg/kg): 1.00 ± 1.67^d | Emetic Episodes (mean ± SD) [8, 12]: 7.67 ± 5.05 | Emetic Episodes (mean ± SD) [8, 13]: 6.00 ± 4.29 | Emetic Episodes (mean ± SD) [8, 14]: 3.00 ± 3.52^d | Emetic Episodes (mean ± SD) [8, 15]: 0.17 ± 0.41^d | potency relative to ondansetron [8, 16]: at least 10 times | Emetic Episodes (mean ± SD) ([8]; oral antiemetic 0.003 mg/kg): 4.50 ± 3.51^c | Emetic Episodes (mean ± SD) ([8]; oral antiemetic 0.01 mg/kg): 2.83 ± 1.94^d | Emetic Episodes (mean ± SD) ([8]; oral antiemetic 0.03 mg/kg): 0.33 ± 0.82^d | Emetic Episodes (mean ± SD) ([8]; oral antiemetic 0.1 mg/kg): 0.00 ± 0.00^d | half-life [9]: ~40 h | adverse events either mild or moderate ([10]; both, human): 83.9% | adverse events not attributed to study medication ([10]; both, human): 86.0% | adverse events related to study medication: abdominal pain ([10]; both, human): 2.5% | adverse events related to study medication: constipation ([10]; both, human): 8.7% | adverse events related to study medication: dizziness ([10]; both, human): 2.5% | adverse events related to study medication: headache ([10]; both, human): 19.3% | serious drug-related events [10]: No serious drug-related events were reported | % CR(Day 5) [11, 17]: 17% | % CR(24 hr) [11, 17]: 24% | % CR(Day 5) [11, 18]: 17% | % CR(24 hr) [11, 18]: 46% | % CR(Day 5) [11, 19]: 32% | % CR(24 hr) [11, 19]: 40% | % CR(Day 5) [11, 20]: 33% | % CR(24 hr) [11, 20]: 50* % | % CR(Day 5) [11, 21]: 20% | % CR(24 hr) [11, 21]: 46%

Source: patent publication US20110178118A1, “PALONOSETRON FOR THE TREATMENT OF CHEMOTHERAPY INDUCED EMESES” (priority 2002, published 2011)
